Patent US8906848B2, “Aureobasidin derivatives and methods of synthesis” (priority 2011, dated 2014)
Read-outs that look alike come from different tables or passages of the source. Starred links: 1 amine or outer side, 2 acyl side, 3 side chain; linkers in the order of their positions; H or OH if unused. Non-standard residues stand in square brackets, D forms with d. Residues, ends and D or L forms follow the SMILES beside them. NMePhe(3-(3-pyridyl)) = CN[C@@H](Cc1cccc(-c2cccnc2)c1)C(=O)O; NMePhe(3-Ph) = CN[C@@H](Cc1cccc(-c2ccccc2)c1)C(=O)O; X2 = CN([C@@H](Cc1cccc(B(O)O)c1)C(=O)[*:2])[*:1]; NMePhe(3-Br) = CN[C@@H](Cc1cccc(Br)c1)C(=O)O; Phe(3-Br) = N[C@@H](Cc1cccc(Br)c1)C(=O)O; X1 = CC[C@@H](C)[C@@H](O[*:1])C(=O)[*:2]; NMeVal(β-OH) = CN[C@H](C(=O)O)C(C)(C)O; aIle = CC[C@@H](C)[C@H](N)C(=O)O; NMeV = CN[C@H](C(=O)O)C(C)C

How the values were obtained:
[1] = system: C. albicans; assay: MIC, broth dilution CLSI M38-A2 with YPD medium (Table 2); type: cell-based
Method: (§1) The activities of several exemplary compounds of the present invention were assayed according to the CLSI standard M38-A2 titled “Reference Method for Broth Dilution Antifungal Susceptibility Testing of Filamentous Fungi”. However, the RPMI-1640 broth is substituted for a YPD medium formulated according to the following steps: […]
(§2) 1. Dissolve 10 g of BactoYeast extract in 500 ml water
(§3) 2. Dissolve 20 g of BactoPeptone in the above solution
(§4) 3. Dissolve 20 g Dextrose in the above solution* *Ordinary table sugar (sucrose) substituted for dextrose routinely.
(§5) 4. q.s. to 1000 ml with water

[2] = system: A. fumigatus; assay: as above; type: cell-based; conditions: compound purity ~85%
Method: as §1, §2, §3, §4, §5

[3] = system: Candida albicans SC5413; assay: Candidiasis model in immunosuppressed mice, mortality; type: in vivo
Method: Referring to FIG. 6, Mice, immunosuppressed with cyclophosphamide, were inoculated with 8 log 10 CFU Candida albicans SC5413 and dosed (following inoculation) with 3-pyridyl-mPhe^4-AbA (or a control antibiotic) orally, BID, for four consecutive days. Efficacy was determined by enumerating mortality.

[4] = system: Candida species, including C. albicans; conditions: virtually all Candida species; cited from earlier work
[5] = system: Aspergilli, A. fumigatus; conditions: most Aspergilli, most notably A. fumigatus; cited from earlier work
[6] = Pharmacokinetic study in mice, oral gavage, plasma by HPLC-MS; type: in vivo; conditions: single 200 mg/kg oral gavage
Method: Referring to FIG. 5, mice were administered a single 200 mg/kg bolus dose of 3-pyridyl-mPhe^4-AbA (diamonds) or AbA (squares), by oral gavage. Blood was collected a timed intervals after administration of the drug and analyzed for compound content by HPLC-MS.

[7] = system: Cryptococcus species, including C. neoformans; conditions: most Cryptococcus species; cited from earlier work
[8] = animals and humans; cited from earlier work
[9] = system: Trychophyton mentagrophytes 5278 (ATCC MYA-4439); assay: MIC, antifungal spectrum (Table 3); type: cell-based; conditions: at 96 hrs
Method: as §1, §2, §3, §4, §5

[10] = system: Fusarium oxysporum 0893 (ATCC48112); assay: MIC, antifungal spectrum (Table 3); type: cell-based; conditions: at 96 hr
Method: as §1, §2, §3, §4, §5

[11] = system: Sporothrix schenkii 892 (ATCC14284); assay: MIC, antifungal spectrum (Table 3); type: cell-based; conditions: at 96 hrs
Method: as §1, §2, §3, §4, §5

[12] = system: Trychophyton rubrum 5279 (ATCC MYA-4438); assay: MIC, antifungal spectrum (Table 3); type: cell-based; conditions: at 72 hrs
Method: as §1, §2, §3, §4, §5

[13] = YPD medium, compound purity ~85%

Molecule: CC[C@@H](C)[C@@H]1NC(=O)[C@@H]2CCCN2C(=O)[C@H](Cc2cccc(Br)c2)N(C)C(=O)[C@H](Cc2cccc(Br)c2)NC(=O)[C@H](C(C)C)N(C)C(=O)[C@@H]([C@H](C)CC)OC(=O)[C@H](C(C)(C)O)N(C)C(=O)[C@H](CC(C)C)NC(=O)[C@H](C(C)C)N(C)C1=O [Br-Phe^3-Br-mPhe^4-AbA] (cyclo([X1][NMeV][Phe(3-Br)][NMePhe(3-Br)]P[aIle][NMeV]L[NMeVal(β-OH)]))
- MIC for C. albicans [1]: 5 mg/L

Molecule: CC[C@@H](C)[C@@H]1NC(=O)[C@@H]2CCCN2C(=O)[C@H](Cc2cccc(-c3ccccc3)c2)N(C)C(=O)[C@H](Cc2ccccc2)NC(=O)[C@H](C(C)C)N(C)C(=O)[C@@H]([C@H](C)CC)OC(=O)[C@H](C(C)(C)O)N(C)C(=O)[C@H](CC(C)C)NC(=O)[C@H](C(C)C)N(C)C1=O [Phenyl-mPhe^4-AbA] (cyclo([X1][NMeV]F[NMePhe(3-Ph)]P[aIle][NMeV]L[NMeVal(β-OH)]))
- MIC for C. albicans [1]: <0.05 mg/L

Molecule: Br-mPhe^4-AbA
- MIC for A. fumigatus [2]: 2.5 mg/L
- MIC for C. albicans [1, 13]: 0.031 mg/L

Molecule: I-mPhe^4-AbA
- MIC for A. fumigatus [2]: >5 mg/L
- MIC for C. albicans [1, 13]: 2.5 mg/L

Molecule: CCC(C)[C@@H]1NC(=O)[C@@H]2CCCN2C(=O)[C@H](Cc2ccccc2)N(C)C(=O)[C@H](Cc2ccccc2)NC(=O)[C@H](C(C)C)N(C)C(=O)[C@@H](C(C)CC)OC(=O)C(C(C)(C)O)N(C)C(=O)[C@H](CC(C)C)NC(=O)[C@H](C(C)C)N(C)C1=O (stereo in doubt) [AbA (native), Aureobasidin A]
- ED50 ([3]; cyclophosphamide-immunosuppressed mice, oral, BID, four consecutive days, mortality): about 25 mg/kg
- MIC for C. albicans [1, 13]: <0.05 mg/L
- efficacy against Candida species [4]: very efficacious
- activity towards Aspergilli [5]: little activity
- plasma concentration trend at the end of the 12 hour experiment [6]: decreasing
- efficacy against Cryptococcus species [7]: efficacious
- tolerability [8]: very well tolerated

Molecule: CC[C@@H](C)[C@@H]1NC(=O)[C@@H]2CCCN2C(=O)[C@H](Cc2cccc(B(O)O)c2)N(C)C(=O)[C@H](Cc2ccccc2)NC(=O)[C@H](C(C)C)N(C)C(=O)[C@@H]([C@H](C)CC)OC(=O)[C@H](C(C)(C)O)N(C)C(=O)[C@H](CC(C)C)NC(=O)[C@H](C(C)C)N(C)C1=O [B(OH)2-mPhe^4-AbA] (cyclo([X1][NMeV]F[X2]P[aIle][NMeV]L[NMeVal(β-OH)]))
- MIC for C. albicans [1]: <0.05 mg/L

Molecule: CC[C@@H](C)[C@@H]1NC(=O)[C@@H]2CCCN2C(=O)[C@H](Cc2cccc(-c3cccnc3)c2)N(C)C(=O)[C@H](Cc2ccccc2)NC(=O)[C@H](C(C)C)N(C)C(=O)[C@@H]([C@H](C)CC)OC(=O)[C@H](C(C)(C)O)N(C)C(=O)[C@H](CC(C)C)NC(=O)[C@H](C(C)C)N(C)C1=O [3-pyridyl-mPhe^4-AbA] (cyclo([X1][NMeV]F[NMePhe(3-(3-pyridyl))]P[aIle][NMeV]L[NMeVal(β-OH)]))
- ED50 of native AbA relative to that of 3-pyridyl-mPhe^4-AbA ([3]; Candidiasis model, mice, oral BID four days): almost four times higher
- MIC for C. albicans [1]: <0.05 mg/L
- bioavailability and/or clearance as compared to the native drug [6]: enhanced bioavailability and/or a slower clearance
- plasma concentration trend at the end of the 12 hour experiment [6]: still be increasing
- plasma concentrations compared with the same dose of native AbA ([6]; same vehicle): significantly higher plasma concentrations
- MIC [9]: 0.5 at 96 hrs μg/ml
- MIC [10]: >64 at 96 hr μg/ml
- MIC [11]: >64 at 96 hrs μg/ml
- MIC [12]: 2 at 72 hrs μg/ml

Molecule: Boronate-mPhe^4-AbA
- MIC for A. fumigatus [2]: 10 mg/L
- MIC for C. albicans [1, 13]: <0.5 mg/L

Molecule: MeO-φ-mPhe^4-AbA
- MIC for C. albicans [1, 13]: 5 mg/L
